From article PMC5693770 (Cell chemical biology, 2017)

How the values were obtained:
PPP2R1A [1] = target: T1, PPP2R1A (Homo sapiens, UniProt P30153); test: gel-based ABPP, competition with IAyne labeling; assay type: binding
PPP2R1A [2] = target: T1, PPP2R1A; test: gel-based ABPP, competition with IAyne labeling of pure protein; assay type: binding
TXNDC17 = target: T2, TXNDC17 (Homo sapiens, UniProt Q9BRA2); test: in situ competitive isoTOP-ABPP in […]MFP cells, light to heavy ratio […]; assay type: cell-based
T2 sequence (Q9BRA2 2-123): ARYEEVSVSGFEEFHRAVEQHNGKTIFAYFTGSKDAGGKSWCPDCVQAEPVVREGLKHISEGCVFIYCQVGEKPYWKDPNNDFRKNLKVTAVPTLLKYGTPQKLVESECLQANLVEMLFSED

CLIC4 = CLIC4 (Homo sapiens, UniProt Q9Y696); test: as above; assay type: cell-based
Chain of CLIC4 (Q9Y696 2-253): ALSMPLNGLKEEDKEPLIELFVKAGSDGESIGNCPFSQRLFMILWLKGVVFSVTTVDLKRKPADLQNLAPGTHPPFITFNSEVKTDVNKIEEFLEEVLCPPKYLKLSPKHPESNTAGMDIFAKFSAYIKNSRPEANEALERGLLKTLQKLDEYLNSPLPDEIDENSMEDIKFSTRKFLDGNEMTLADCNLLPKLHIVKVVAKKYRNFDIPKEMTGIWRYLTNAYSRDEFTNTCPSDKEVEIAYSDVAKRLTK

PPP2R1A [3] = target: T1, PPP2R1A; test: gel-based ABPP, competition with IAyne labeling of pure protein; assay type: binding; remark: listed apart in the source
SCP2 = target: T3, SCP2 (Homo sapiens, UniProt P22307); test: in situ competitive isoTOP-ABPP in […]MFP cells, light to heavy ratio […]; assay type: cell-based
T3 sequence (P22307 1-547): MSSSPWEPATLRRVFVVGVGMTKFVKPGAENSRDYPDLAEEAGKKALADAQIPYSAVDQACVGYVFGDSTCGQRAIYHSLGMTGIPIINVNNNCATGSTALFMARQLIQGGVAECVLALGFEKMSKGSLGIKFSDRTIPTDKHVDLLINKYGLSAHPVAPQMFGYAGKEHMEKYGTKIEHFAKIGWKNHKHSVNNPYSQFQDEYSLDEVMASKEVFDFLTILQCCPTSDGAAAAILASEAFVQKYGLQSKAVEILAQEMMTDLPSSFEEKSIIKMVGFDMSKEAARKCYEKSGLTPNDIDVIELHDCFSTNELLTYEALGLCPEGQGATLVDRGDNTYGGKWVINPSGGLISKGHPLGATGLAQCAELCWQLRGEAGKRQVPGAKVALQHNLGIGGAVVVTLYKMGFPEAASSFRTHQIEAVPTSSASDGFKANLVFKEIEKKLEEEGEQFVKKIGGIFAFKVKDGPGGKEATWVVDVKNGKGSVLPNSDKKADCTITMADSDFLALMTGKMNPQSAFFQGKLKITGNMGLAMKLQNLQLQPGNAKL

ACAT1 = target: T4, ACAT1 (Homo sapiens, UniProt P24752); test: as above; assay type: cell-based
T4 sequence (P24752 34-427): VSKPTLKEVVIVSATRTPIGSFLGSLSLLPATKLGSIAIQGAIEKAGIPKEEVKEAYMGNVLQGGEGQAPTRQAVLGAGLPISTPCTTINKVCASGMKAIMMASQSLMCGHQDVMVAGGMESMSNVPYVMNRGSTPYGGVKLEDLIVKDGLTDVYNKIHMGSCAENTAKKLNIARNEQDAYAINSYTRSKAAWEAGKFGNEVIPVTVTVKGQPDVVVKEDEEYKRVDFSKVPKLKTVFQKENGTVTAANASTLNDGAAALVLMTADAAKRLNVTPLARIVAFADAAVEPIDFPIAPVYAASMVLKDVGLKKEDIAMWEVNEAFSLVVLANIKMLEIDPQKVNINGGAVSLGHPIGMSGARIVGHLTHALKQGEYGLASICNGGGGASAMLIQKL

T1 sequence (P30153 2-589): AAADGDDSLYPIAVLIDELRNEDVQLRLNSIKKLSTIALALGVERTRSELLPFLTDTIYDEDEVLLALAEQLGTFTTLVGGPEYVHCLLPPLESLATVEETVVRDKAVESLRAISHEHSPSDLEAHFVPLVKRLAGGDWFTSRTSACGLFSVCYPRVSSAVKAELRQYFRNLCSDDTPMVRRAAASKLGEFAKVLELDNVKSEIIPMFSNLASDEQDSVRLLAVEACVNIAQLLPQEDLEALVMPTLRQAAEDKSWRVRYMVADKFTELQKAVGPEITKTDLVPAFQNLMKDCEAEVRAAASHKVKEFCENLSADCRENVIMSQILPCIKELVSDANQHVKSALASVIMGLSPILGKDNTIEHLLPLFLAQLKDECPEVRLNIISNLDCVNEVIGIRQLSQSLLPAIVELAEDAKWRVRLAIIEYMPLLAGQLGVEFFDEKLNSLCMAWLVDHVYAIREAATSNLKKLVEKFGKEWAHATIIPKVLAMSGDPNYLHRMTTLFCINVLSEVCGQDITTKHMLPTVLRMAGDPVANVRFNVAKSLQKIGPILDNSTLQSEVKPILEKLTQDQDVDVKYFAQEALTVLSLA

## O=C(CCl)Nc1ccc2c(c1)CCCC2 [JNS 1-37]
PPP2R1A [1]
  IC50: 300 µM

## O=C(CCl)N(Cc1ccccc1)c1ccc2c(c1)OCCO2 [JNS 1-40]
PPP2R1A [2]
  IC50: 0.63 µM

## DKM 2-90
TXNDC17
  in situ competitive isoTOP-ABPP in 231MFP cells, light to heavy ratio >5: > 5 light to heavy ratio
CLIC4
  in situ competitive isoTOP-ABPP in 231MFP cells, light to heavy ratio >5: > 5 light to heavy ratio
PPP2R1A [3]
  IC50: 10 µM
SCP2
  in situ competitive isoTOP-ABPP in 231MFP cells, light to heavy ratio >5: > 5 light to heavy ratio
ACAT1
  in situ competitive isoTOP-ABPP in 231MFP cells, light to heavy ratio >5: > 5 light to heavy ratio
